≈ marks a conversion by molar mass, not a printed value.
Key:
Oryctolagus sp. = settings: chronic; other
Daphnia magna = settings: chronic/long-term; duration: 21 days; reproduction
Lepomis macrochirus = settings: chronic/long-term; other
Rattus norvegicus = settings: for LD50: acute, mortality
Apis mellifera = settings: acute, mortality
Oncorhynchus mykiss = settings: acute; duration: 96 hours; mortality
Folsomia candida = settings: chronic/long-term; reproduction
Tagia sp. = settings: for LC50: acute, mortality; for NOEC: chronic/long-term, reproduction
Aphidius rhopalosiphi = assay: LR50; higher = less toxic; settings: not reported; mortality
[1] = short-term, duration: 28 days, M

Structure (SMILES) | LC50 (Oncorhynchus mykiss) [mg/L] | LC50 (Tagia sp.) [mg/kg] | NOEC (Tagia sp.) [mg/kg] | NOAEL (Rattus norvegicus; [1]) [mg/kg-day] | other results
CCOC(=O)C(Cl)Cc1cc(-n2nc(C)n(C(F)F)c2=O)c(F)cc1Cl (configuration not stated) [Carfentrazone-ethyl] | 1.6 (≈ 3.88 µM) | > 410 | 8 | – | NOAEL (Oryctolagus sp.): 40 mg/kg-day; NOEC (Daphnia magna): 0.22 mg/L; NOEC (Lepomis macrochirus): 0.0187 mg/L; LD50 (Rattus norvegicus; F): > 5140 mg/kg-day; LD50 (Rattus norvegicus; oral, M): > 5000 mg/kg; NOAEL (Rattus norvegicus; subchronic, duration: 90 days, oral, hematological): 58 mg/kg-day; LD50 (Apis mellifera; dermal): > 81 µg/piece; LD50 (Apis mellifera; oral, unspecified): > 81 µg/piece; LD50 (Colinus virginianus; acute, oral, mortality): > 2250 mg/kg-day; NOEC (Colinus virginianus; chronic): 94 mg/kg-day; NOEC (Folsomia candida): 0.975 mg/kg; LR50 (Aphidius rhopalosiphi): 23.5 g/ha
O=C(O)CCc1cc(-n2nc(CO)n(C(F)F)c2=O)c(F)cc1Cl [3-Hydroxymethyl-F8426-propionic acid] | – | – | – | 1.4 | –
COc1cc(-n2nc(C)n(C(F)F)c2=O)c(F)cc1Cl | > 20.9 | – | 0.256 | 8.5 | –
Cc1nn(-c2cc(CCC(=O)O)c(Cl)cc2F)c(=O)n1C(F)F | – | > 1000 | – | – | NOAEL (Rattus norvegicus; short-term, M): 1.4 mg/kg-day
Cc1nn(-c2cc(CC(Cl)C(=O)O)c(Cl)cc2F)c(=O)n1C(F)F (configuration not stated) [Carfentrazone] | > 99.2 | > 1000 | – | – | –
Cc1n[nH]c(=O)n1C(F)F | > 100 | > 100 | – | – | NOAEL (Rattus norvegicus; subchronic, duration: 90 days, M): 0.666 mg/kg-day
O=C(O)c1cc(-n2nc(CO)n(C(F)F)c2=O)c(F)cc1Cl | > 100 | – | 0.056 | 10.1 | –
O=C(O)c1cc(-n2ncn(C(F)F)c2=O)c(F)cc1Cl [3-Desmethyl-F8426-benzoic acid] | – | – | – | 5.4 | –
O=C(O)c1cc(-n2nc(C(=O)O)n(C(F)F)c2=O)c(F)cc1Cl [F8426-dicarboxylic acid] | > 100 | – | 0.152 | 12.1 | –
Cc1nn(-c2cc(CC(C(=O)O)S(=O)(=O)O)c(Cl)cc2F)c(=O)n1C(F)F (stereo not drawn) [F8426-alpha-Sulfodeschloropropionic acid] | > 100 | > 100 | – | 0.359 | –
Cc1nn(-c2cc(C(=O)O)c(Cl)cc2F)c(=O)n1C(F)F | > 92.5 | > 1000 | – | 5.4 | –
O=C(O)CCc1cc(-n2ncn(C(F)F)c2=O)c(F)cc1Cl [3-Desmethyl-F8426-propionic acid] | – | – | – | – | NOAEL (Rattus norvegicus; short-term, M): 1.4 mg/kg-day
Cc1nn(-c2cc(C=CC(=O)O)c(Cl)cc2F)c(=O)n1C(F)F | – | > 500 | – | 1 | –
